For assay [1], the species on record is Homo sapiens. Kind of assay: Binding affinity to MTSL-labeled USP7CD-CTP N1102C mutant (unknown origin) expressed in Escherichia coli BL21(DE3) assessed as complex formation of compound and CTP with switching loop region of USP7 at 200 uM by CPMG spectral analysis. The following applies: filed as activator.
In assay [2] the target is T1, Ubiquitin carboxyl-terminal hydrolase 7 (Homo sapiens, UniProt Q93009). Put plainly: Activation of USP7 catalytic domain (208 to 560 residues) (unknown origin) expressed in Escherichia coli BL21(DE3) assessed as Ub-AMC hydrolysis preincubated for 15 mins followed by Ub-AMC addition and measured every 1 min by fluorescence based analysis.
Target sequence in this assay (Q93009 whole entry, the tested form may be a part): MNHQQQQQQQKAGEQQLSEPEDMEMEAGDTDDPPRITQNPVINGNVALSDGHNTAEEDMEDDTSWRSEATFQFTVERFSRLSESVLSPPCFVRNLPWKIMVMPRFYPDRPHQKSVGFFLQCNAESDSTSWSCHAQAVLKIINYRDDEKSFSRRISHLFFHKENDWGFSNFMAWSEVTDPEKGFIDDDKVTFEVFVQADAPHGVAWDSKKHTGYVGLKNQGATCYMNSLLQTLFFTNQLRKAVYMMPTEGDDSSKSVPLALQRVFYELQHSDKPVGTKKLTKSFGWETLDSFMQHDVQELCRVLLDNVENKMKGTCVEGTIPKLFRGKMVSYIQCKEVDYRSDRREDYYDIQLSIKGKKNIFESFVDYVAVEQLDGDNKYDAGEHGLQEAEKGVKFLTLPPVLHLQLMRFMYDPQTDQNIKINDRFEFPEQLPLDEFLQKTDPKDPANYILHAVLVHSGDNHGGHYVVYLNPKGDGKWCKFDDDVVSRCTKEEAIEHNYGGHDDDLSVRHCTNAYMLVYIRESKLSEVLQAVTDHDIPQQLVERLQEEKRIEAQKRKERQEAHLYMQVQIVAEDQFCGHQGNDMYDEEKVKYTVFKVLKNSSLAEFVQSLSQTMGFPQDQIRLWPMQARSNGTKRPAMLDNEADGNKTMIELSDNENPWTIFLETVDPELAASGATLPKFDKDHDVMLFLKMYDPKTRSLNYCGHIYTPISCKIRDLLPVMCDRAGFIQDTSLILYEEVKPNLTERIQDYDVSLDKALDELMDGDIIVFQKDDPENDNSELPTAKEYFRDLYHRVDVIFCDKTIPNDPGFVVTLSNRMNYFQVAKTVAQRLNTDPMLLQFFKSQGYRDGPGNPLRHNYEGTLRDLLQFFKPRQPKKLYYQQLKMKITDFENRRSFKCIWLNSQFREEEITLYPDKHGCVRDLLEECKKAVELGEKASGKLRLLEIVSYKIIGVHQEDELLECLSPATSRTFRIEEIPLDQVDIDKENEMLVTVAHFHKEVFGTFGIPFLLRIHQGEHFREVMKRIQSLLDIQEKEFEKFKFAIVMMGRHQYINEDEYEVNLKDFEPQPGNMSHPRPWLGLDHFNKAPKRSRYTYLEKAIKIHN
Assay [3] deals with T1, Ubiquitin carboxyl-terminal hydrolase 7. Kind of assay: Activation of USP7 catalytic domain (208 to 560 residues) (unknown origin) expressed in Escherichia coli BL21(DE3) assessed as upregulation of Kcat of enzyme using Ub-AMC as substrate at 200 uM preincubated for 15 mins followed by Ub-AMC addition and measured for 1 hr by fluorescence based analysis. The following applies: filed as activator, time 75.0 min.
Target sequence in this assay (Q93009 whole entry, looked up, the tested form may be a part): as the sequence (Q93009 whole entry, the tested form may be a part) above

For assay [4], the system named is Ubiquitin carboxyl-terminal hydrolase 7 (Homo sapiens), Q93009 [I766T]. The settings on record: filed as activator, time 15.0 min.
Sequence of Ubiquitin carboxyl-terminal hydrolase 7 (Homo sapiens), Q93009 [I766T] (Q93009 whole entry I766T): as the sequence (Q93009 whole entry, the tested form may be a part) above, with I766T counted along it
The target of assay [5] is T1, Ubiquitin carboxyl-terminal hydrolase 7. The settings on record: filed as activator.
Target sequence in this assay (Q93009 whole entry, looked up, the tested form may be a part): as the sequence (Q93009 whole entry, the tested form may be a part) above
Assay [6] relates to Ubiquitin carboxyl-terminal hydrolase 7 (Homo sapiens), Q93009 [L757P]. The settings on record: filed as activator, time 15.0 min.
Sequence of Ubiquitin carboxyl-terminal hydrolase 7 (Homo sapiens), Q93009 [L757P] (Q93009 whole entry L757P, the tested form may be a part): as the sequence (Q93009 whole entry, the tested form may be a part) above, with L757P counted along it
For assay [7], the target named is T1, Ubiquitin carboxyl-terminal hydrolase 7. Kind of assay: Activation of USP7 catalytic domain (208 to 560 residues) (unknown origin) expressed in Escherichia coli BL21(DE3) assessed as decrease in thermal stability of protein at 250 uM by SYPRO orange dye based fluorescence analysis. The following applies: filed as activator.
Target sequence in this assay (Q93009 whole entry, looked up, the tested form may be a part): as the sequence (Q93009 whole entry, the tested form may be a part) above
Assay [8] deals with Ubiquitin carboxyl-terminal hydrolase 7 (Homo sapiens), Q93009 [D1080N]. The settings on record: filed as activator, time 15.0 min.
Sequence of Ubiquitin carboxyl-terminal hydrolase 7 (Homo sapiens), Q93009 [D1080N] (Q93009 whole entry D1080N): as the sequence (Q93009 whole entry, the tested form may be a part) above, with D1080N counted along it
In assay [9] the target is T1, Ubiquitin carboxyl-terminal hydrolase 7. The settings on record: filed as activator, time 15.0 min.
Target sequence in this assay (Q93009 whole entry, looked up, the tested form may be a part): as the sequence (Q93009 whole entry, the tested form may be a part) above

Activity calls are given as the source filed them. No cut-off for these calls is given here.

Broadly, the EC50 is the concentration giving half of the maximal effect.

With `CN[C@H]1CC[C@@H](c2ccc(Cl)c(Cl)c2)c2ccccc21`, the result in [1] was Active.

For `COc1ccc(CCN2CCC(Nc3nc4ccccc4n3Cc3ccc(F)cc3)CC2)cc1` [ASTEMIZOLE], the EC50 in assay [2] amounted to 32.2 µM. The result in assay [3], in assay [1] and in assay [7] was Active. The EC1.5 in assay [4] was determined as 1.27 µM; in assay [5], 5.61 µM; in assay [6] it was 8.98 µM; in assay [8], 6.54 µM; in [9] it was 2.19 µM.

(Values after ChEMBL document CHEMBL6134808, “Sertraline and Astemizole Enhance the Deubiquitinase Activity of USP7 by Binding to Its Switching Loop Region” (J Med Chem, 2025).)
